Article PMC7540184 (Journal of natural products, 2020)

Key:
Type in all cases: cell-based, human
BT-549 cells = assay: Intracellular Ca2+ imaging; conditions: BT-549, 150 nM and 500 nM, after 3 h, sustained at 6 h
[1] = system: BT-549 cells with NCX1 knockout; assay: Sensitivity of BT-549 cells after CRISPR knockout of NCX1; conditions: inducible Cas9, three sgRNAs targeted to NCX1
MDA-MB-231 cells = assay: Intracellular Ca2+ imaging; conditions: MDA-MB-231, 150 nM

C[C@@H]1C[C@H](O)[C@]2(O)O[C@@H]3C[C@@]4(C=O)[C@@H](CC[C@@H]5[C@@H]4CC[C@]4(C)[C@@H](C6=CC(=O)OC6)CC[C@]54O)C[C@H]3O[C@@H]2O1 [calotropin (9), Calotropin] was tested, and the “mean intracellular Ca2+ fluorescence compared to vehicle-treated cells” value (BT-549 cells) was “significantly increased”, the “effect of removing NCX1 on sensitivity of BT-549 cells” value [1] was “did not reduce the sensitivity” and the “change in Ca2+ fluorescence relative to BT-549 cells” value (MDA-MB-231 cells) was “significantly less”.
